{
  "source": "patent US20040142860A1",
  "about": "“Central nervous system-derived immune privilege factor and uses thereof” (Yeda Research and Development Co. Ltd., priority 1996, published 2004)",
  "origin": "cited, not measured here",
  "system": "ganglion cell degradation in the retina",
  "settings": "single or repeated injections into the vitreous body",
  "data": [
    {"substance": "Threonine-Lysine-Proline [TKP]", "values": [
      {"measurement": "effect on axotomy-induced ganglion cell degradation in the retina", "value": "retardation of axotomy-induced ganglion cell degradation in the retina"}
    ]}
  ]
}
